What all share (assay): NCI anticancer screen, dose series, 48 h
Test [1] has as its system TK-10 renal.
Test [2] concerns IGROV1 ovarian.
Test [3] deals with SR leukemia.
For test [4], the system named is NCI-H460 lung.
Test [5] relates to SK-OV-3 ovarian.
In test [6] the test system is SK-MEL-28 melanoma.
The subject of test [7] is NCI-H23 lung.
For test [8], the system named is MDA-MB-231 breast.
Test [9] concerns NCI-H226 lung.
In test [10] the test system is UO-31 renal.
Test [11] deals with BT-549 breast.
Test [12] concerns A498 renal.
The test system of test [13] is MCF7 breast.
Test [14] concerns OVCAR-4 ovarian.
Test [15] concerns SNB-19 CNS.
The subject of test [16] is ACHN renal.
Test [17] deals with U251 CNS.
The test system of test [18] is DU-145 prostate.
Test [19] deals with T-47D breast.
The subject of test [20] is COLO 205 colon.

Each structure is given as a SMILES string.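 Compound exposure: 48 hours, 5 concentrations, 96-well plates. TGI: concentration producing complete growth inhibition.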

With `CCC(C)C1NC(=O)C(NC(=O)c2c3[nH]c4c(C(=O)NC5C(=O)NC(C(C)CC)C(=O)N6CCCC6C(=O)N(C)CC(=O)N(C)C(C(C)C)C(=O)OC5C)ccc(C)c4oc-3c(C)c(=O)c2=O)C(C)OC(=O)C(C(C)C)N(C)C(=O)CN(C)C(=O)C2CCCN2C1=O` (stereo not given), the TGI in test [1] was 98.4 µM; in test [2], more than 100 µM; in test [3], 4 µM; in [4], 8.45 µM; in test [5] it was more than 100 µM; in [6] it was 76.3 µM. The TGI is 45.3 µM in test [7]; 55.2 µM in test [8]; more than 51.6 µM in [9]; more than 77 µM in test [10]; more than 72.4 µM in test [11]; 39.4 µM in test [12]. Also, the TGI in [13] is more than 33 µM; in test [14], more than 89.1 µM; in test [15], more than 100 µM; in [16] it was 65.2 µM; in [17], more than 100 µM; in test [18] it was more than 78 µM. Besides, the TGI is more than 40.5 µM in test [19] and 13.4 µM in test [20].
Regarding `O=C(Oc1cccnc1)c1cc2cc(CCl)ccc2oc1=O`, the TGI in test [1] was 50.8 µM; in test [2], 66.3 µM; in [3] it was 73.6 µM; in test [4], more than 100 µM; in test [5], more than 100 µM; in [6] it was more than 100 µM. Moreover, the TGI in test [7] is 39.5 µM; in [8], 43.2 µM; in test [9] it was more than 100 µM; in test [10], 44.5 µM; in [11], 53.7 µM; in test [12] it was more than 100 µM. Moreover, the TGI in test [13] was 11.3 µM; in test [14] it was 60.3 µM; in test [15], more than 100 µM; in test [16], more than 100 µM; in [17] it was 57.2 µM; in test [18] it was 39.5 µM. Besides, the values for the TGI in [19] and in test [20] were 48 µM and 69.5 µM, respectively.
For the molecule `CC(C(=O)OCc1ccccc1)(c1ccco1)N1C(=O)OC(c2ccccc2)C1c1ccccc1` (stereo not given), the TGI in test [1], in test [2], in [3], in test [4], in [5] and in test [6] was more than 100 µM in each case. For the same molecule, the TGI in test [7], in [8], in test [9], in [10], in test [11] and in test [12] was more than 100 µM in each case. Further, the TGI in test [13], in [14], in [15], in test [16], in test [17] and in test [18] was more than 100 µM each time. The TGI in test [19] and in test [20] was more than 100 µM each time.
For the molecule `O=C1c2cccc3cccc(c23)C2NCCCN12` (stereo not given), the TGI in test [1], in [2], in test [3], in [4], in test [5] and in test [6] was more than 100 µM each time. In addition, the TGI in [7], in test [8], in test [9], in [10], in test [11] and in test [12] was more than 100 µM in each case. The TGI in [13], in test [14], in [15], in test [16], in test [17] and in test [18] was more than 100 µM throughout. In addition, the TGI in test [19] and in test [20] was more than 100 µM throughout.
Consider `O=c1oc2ccccc2cc1-c1cn2ccccc2n1`, for which the TGI in test [1] is 20.5 µM; in test [2], 26.3 µM; in test [3], more than 35.5 µM; in [4] it was 13.4 µM; in [5], 15.6 µM; in [6] it was 17.7 µM. Moreover, the TGI worked out at 29.6 µM in test [7]; 18.5 µM in [8]; 26.7 µM in test [9]; 7.02 µM in test [10]; 26.3 µM in test [11]; 6.49 µM in test [12]. For the same molecule, the TGI was 30 µM in [13]; more than 42.1 µM in [14]; 12.7 µM in test [15]; 11.4 µM in test [16]; 5.66 µM in test [17]; 21 µM in test [18]. In addition, the TGI in test [19] is 34.6 µM; in test [20], more than 100 µM.
For `COC(=O)[C@H](Cc1c[nH]c2ccccc12)NC(=O)c1ccc(CNC(=O)/C(C)=C/c2ccccc2)cc1`, the TGI is more than 100 µM in test [1]; more than 100 µM in test [2]; more than 100 µM in [3]; more than 100 µM in test [4]; more than 100 µM in test [5]; 36.7 µM in test [6]. Moreover, the TGI in test [7] is more than 100 µM; in [8], 60.6 µM; in [9], more than 100 µM; in [10], more than 100 µM; in [11], more than 100 µM; in test [12] it was 64.2 µM. In addition, the TGI in test [13], in [14], in test [15], in test [16], in test [17] and in [18] was more than 100 µM throughout. Besides, the TGI in test [19] is 27.7 µM; in test [20], 50.5 µM.
Consider `O=c1cc(CO)oc(C(O)c2ccccc2)c1O` (stereo not given), for which the TGI in test [1], in test [2], in test [3], in test [4], in test [5] and in [6] was more than 100 µM in each case. Besides, the TGI in test [7], in test [8], in test [9], in test [10], in test [11] and in test [12] was more than 100 µM throughout. Also, the TGI in test [13], in test [14], in [15], in [16], in test [17] and in [18] was more than 100 µM in each case. Besides, the TGI in test [19] and in [20] was more than 100 µM each time.
For `Ic1cccc(/C=C/CN2CCN(CCOC(c3ccccc3)c3ccccc3)CC2)c1`, the TGI in test [1] worked out at 31.6 µM; in [2], 40.9 µM; in [3] it was 28.9 µM; in [4], 32.4 µM; in test [5], 63.4 µM; in test [6], 50.1 µM. Moreover, the TGI came out at 40 µM in [7]; 32.4 µM in test [8]; 40.2 µM in [9]; 29 µM in [10]; 31.4 µM in test [11]; 31.7 µM in test [12]. Besides, the TGI is 30.5 µM in [13]; 51.1 µM in test [14]; 34.9 µM in test [15]; more than 100 µM in test [16]; 29.7 µM in test [17]; 28.3 µM in test [18]. The TGI in test [19] turned out to be 33.3 µM; in [20] it was 65.1 µM.
For `CCOC(=O)c1nc2ccc(C(F)(F)F)cc2[nH]c1=O`, the TGI in test [1], in test [2], in test [3], in test [4], in test [5] and in [6] was more than 100 µM in each case. The TGI in test [7], in test [8], in test [9], in [10], in test [11] and in test [12] was more than 100 µM throughout. For the same molecule, the TGI in test [13], in test [14], in test [15], in [16], in test [17] and in test [18] was more than 100 µM in each case. Besides, the TGI in [19] and in test [20] was more than 100 µM throughout.
`S=C1SSC2N=CC=CC12` (stereo not given): the TGI in [1], in [2], in test [3], in [4], in test [5] and in [6] was more than 100 µM in each case. The TGI in [7], in test [8], in test [9], in test [10], in test [11] and in test [12] was more than 100 µM each time. The TGI was more than 100 µM in [13]; 34.2 µM in [14]; more than 100 µM in test [15]; more than 100 µM in [16]; more than 100 µM in test [17]; more than 100 µM in [18]. Besides, the TGI in test [19] and in [20] was more than 100 µM in each case.
For the molecule `c1ccc([P+](CC[P+](c2ccccc2)(c2ccccc2)c2ccccc2)(c2ccccc2)c2ccccc2)cc1`, the TGI in test [1] was more than 67.3 µM; in [2], more than 100 µM; in [3], more than 79.8 µM; in test [4], 35 µM; in test [5] it was more than 100 µM; in [6], 38.4 µM. Moreover, the TGI in test [7] is more than 100 µM; in [8], 98.4 µM; in test [9], more than 100 µM; in [10] it was more than 100 µM; in test [11], more than 100 µM; in test [12], more than 100 µM. The TGI was more than 100 µM in [13]; more than 100 µM in test [14]; more than 100 µM in [15]; more than 100 µM in [16]; 21 µM in test [17]; more than 100 µM in test [18]. Also, the TGI in test [19] was more than 58.8 µM; in test [20], 24.9 µM.
As for `[N-]=[N+]=NC1C(O)C(CO)OC1n1ccc(=O)[nH]c1=O` (stereo not given), the TGI in [1], in test [2], in test [3], in test [4], in test [5] and in test [6] was more than 875 µM each time. In addition, the TGI in test [7], in [8], in test [9], in [10], in [11] and in test [12] was more than 875 µM each time. The TGI in test [13], in test [14], in test [15], in test [16], in [17] and in test [18] was more than 875 µM throughout. Also, the TGI in test [19] and in test [20] was more than 875 µM each time.
Take `COc1ccc2c(c1)nc1n2C(c2c(Cl)cccc2Cl)SC1` (stereo not given): the TGI in test [1], in [2], in test [3], in test [4], in [5] and in test [6] was more than 100 µM in each case. Further, the TGI in [7], in test [8], in test [9], in test [10], in test [11] and in test [12] was more than 100 µM in each case. The TGI was more than 37.5 µM in test [13]; more than 100 µM in test [14]; more than 92.7 µM in test [15]; more than 100 µM in [16]; more than 65.5 µM in [17]; more than 100 µM in test [18]. The TGI in [19] was more than 72.3 µM; in [20], more than 100 µM.
As for `COc1c(OC(C)=O)c(OC(C)=O)cc2c1-c1ccc(SC)c(=O)cc1C(NC(C)=O)CC2` (stereo not given), the TGI is more than 96.3 µM in [1]; more than 100 µM in test [2]; more than 100 µM in [3]; more than 56.1 µM in test [4]; more than 44 µM in test [5]; more than 100 µM in test [6]. Moreover, the TGI is 28.7 µM in test [7]; more than 100 µM in test [8]; 33.1 µM in test [9]; more than 100 µM in test [10]; more than 100 µM in [11]; 56 µM in [12]. Also, the TGI is more than 100 µM in test [13]; more than 100 µM in test [14]; more than 100 µM in test [15]; more than 100 µM in test [16]; more than 42.2 µM in test [17]; 4.12 µM in [18]. In addition, the TGI was more than 100 µM in test [19] and 4.32 µM in test [20].

Source of the values: PubChem BioAssay (NCI).
